# From patent publication US20110039721A1, “METHOD FOR PREDICTION ABOUT CARCINOGENICITY OF SUBSTANCE IN RODENT” (Chemicals Evaluation and Research Institute, priority 2007, published 2011)
# Assays:
# [1] = test system: mRNA expressed from the genes (A) to (D) in rat liver; experiment: Behavior of genes (mRNA expression level, oligo-DNA microarray) in rat liver after 28-day oral administration; format: in vivo; settings: mRNA vs vehicle control group
# Outline: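 Male F344 SPF rats, 5 weeks old, four per group, dosed by oral gavage once daily for 28 days with test chemical or matched-volume solvent. Liver total RNA profiled on oligo-DNA microarray. Change ≥1.5-fold or ≤1/1.5 versus vehicle counted as significant if its direction matched that seen with other carcinogens.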
# [2] = classification of the substance (M+/M−); cited from earlier work
# liver = settings: classification of the substance (Cr+/Cr−); cited from earlier work
# rodent = settings: classification of the substance (C+/C−); cited from earlier work
# [3] = gene group (A), Unigene No. Rn.167075
# [4] = gene group (C), Unigene No. Rn.120914
compound,measurement,setting,value
"CCSCCC(N)C(=O)O (racemic) [TS070, D,L-Ethionine]","Behavior of gene caused by administration of chemical substance, Gene No. 4846","[1]; gene group (A), Unigene No. Rn.144554",−
same,"Behavior of gene caused by administration of chemical substance, Gene No. 2026",[1]; [3],−
same,"Behavior of gene caused by administration of chemical substance, Gene No. 4218",[1]; [3],−
same,"Behavior of gene caused by administration of chemical substance, Gene No. 6182","[1]; gene group (A), Unigene No. Rn.5834",−
same,"Behavior of gene caused by administration of chemical substance, Gene No. 5600","[1]; gene group (A), Unigene No. Rn.9836",−
same,"Behavior of gene caused by administration of chemical substance, Gene No. 1494","[1]; gene group (B), Unigene No. Rn.1430",+
same,"Behavior of gene caused by administration of chemical substance, Gene No. 2045","[1]; gene group (B), Unigene No. Rn.19329",−
same,"Behavior of gene caused by administration of chemical substance, Gene No. 2203","[1]; gene group (B), Unigene No. Rn.21240",+
same,"Behavior of gene caused by administration of chemical substance, Gene No. 533","[1]; gene group (C), Unigene No. Rn.106184",−
same,"Behavior of gene caused by administration of chemical substance, Gene No. 725","[1]; gene group (C), Unigene No. Rn.108075",+
same,"Behavior of gene caused by administration of chemical substance, Gene No. 1163","[1]; gene group (C), Unigene No. Rn.11766",−
same,"Behavior of gene caused by administration of chemical substance, Gene No. 4973","[1]; gene group (C), Unigene No. Rn.118529",−
same,"Behavior of gene caused by administration of chemical substance, Gene No. 4095","[1]; gene group (C), Unigene No. Rn.119024",−
same,"Behavior of gene caused by administration of chemical substance, Gene No. 1334",[1]; [4],−
same,"Behavior of gene caused by administration of chemical substance, Gene No. 6620",[1]; [4],−
same,"Behavior of gene caused by administration of chemical substance, Gene No. 6303","[1]; gene group (C), Unigene No. Rn.123063",−
same,"Behavior of gene caused by administration of chemical substance, Gene No. 5878","[1]; gene group (C), Unigene No. Rn.143213",−
same,"Behavior of gene caused by administration of chemical substance, Gene No. 1131","[1]; gene group (C), Unigene No. Rn.144946",−
same,"Behavior of gene caused by administration of chemical substance, Gene No. 1562","[1]; gene group (C), Unigene No. Rn.14744",−
same,"Behavior of gene caused by administration of chemical substance, Gene No. 1741","[1]; gene group (C), Unigene No. Rn.1647",−
same,"Behavior of gene caused by administration of chemical substance, Gene No. 893","[1]; gene group (C), Unigene No. Rn.164817",−
same,"Behavior of gene caused by administration of chemical substance, Gene No. 6026","[1]; gene group (C), Unigene No. Rn.167685",−
same,"Behavior of gene caused by administration of chemical substance, Gene No. 154","[1]; gene group (C), Unigene No. Rn.185941",−
same,"Behavior of gene caused by administration of chemical substance, Gene No. 1993","[1]; gene group (C), Unigene No. Rn.18728",−
same,"Behavior of gene caused by administration of chemical substance, Gene No. 813","[1]; gene group (C), Unigene No. Rn.201760",−
same,"Behavior of gene caused by administration of chemical substance, Gene No. 2494","[1]; gene group (C), Unigene No. Rn.23969",−
same,"Behavior of gene caused by administration of chemical substance, Gene No. 2546","[1]; gene group (C), Unigene No. Rn.24561",−
same,"Behavior of gene caused by administration of chemical substance, Gene No. 3776","[1]; gene group (C), Unigene No. Rn.43232",−
same,"Behavior of gene caused by administration of chemical substance, Gene No. 3929","[1]; gene group (C), Unigene No. Rn.4620",−
same,"Behavior of gene caused by administration of chemical substance, Gene No. 1119","[1]; gene group (C), Unigene No. Rn.9757",−
same,"Behavior of gene caused by administration of chemical substance, Gene No. 6742","[1]; gene group (C), Unigene No. Rn.9779",−
same,"Behavior of gene caused by administration of chemical substance, Gene No. 5634","[1]; gene group (C), Unigene No. Rn.9862",−
same,"Behavior of gene caused by administration of chemical substance, Gene No. 5726","[1]; gene group (D), Unigene No. Rn.9939",−
same,Mutagenicity by Ames test,[2],M−
same,Liver carcinogenicity,liver,Cr+
same,Carcinogenicity,rodent,C+
